# Test results as given in patent US20140018537A1, “GPR119 AGONIST” (NIPPON CHEMIPHAR CO., LTD., priority 2008, published 2014).
row,Structure (SMILES),melting point [°C]
1,"CCCc1cnc(N2CCC(c3ccc(COc4ccc(S(C)(=O)=O)cc4)nc3)CC2)nc1 [Example 49, 2-[4-[2-(4-Methanesulfonylphenoxymethyl)pyridin-5-yl]piperidin-1-yl]-5-propylpyrimidine]",164 to 166
2,"CC(C)(C)OC(=O)N1CC=C(c2cnc(COc3ccc(S(C)(=O)=O)cc3)cc2Cl)CC1 [Example 76, tert-Butyl 4-[4-chloro-2-(4-methanesulfonylphenoxymethyl)pyridin-5-yl]-3,6-dihydro-2H-pyridine-1-carboxylate]",148 to 150
3,"CCc1cnc(N2CCC(c3ccc(COc4ccc(C#N)c(F)c4)nc3)CC2)nc1 [Example 52, 2-[4-[2-(4-Cyano-3-fluorophenoxymethyl)pyridin-5-yl]piperidin-1-yl]-5-ethylpyrimidine]",129 to 131

# The remaining lines, values ahead:
row,melting point [°C],Structure (SMILES)
1,135 to 138,"COc1cc(S(C)(=O)=O)ccc1OCc1ccc(C2CCN(C(=O)OC(C)(C)C)CC2)cn1 [Example 26, tert-Butyl 4-[2-(4-methanesulfonyl-2-methoxyphenoxymethyl)pyridin-5-yl]piperidine-1-carboxylate]"
2,171 to 173,"CC(C)(C)OC(=O)N1CCC(c2ccc(COc3ccc(NS(C)(=O)=O)cc3)nc2)CC1 [Example 35, tert-Butyl 4-[2-(4-methanesulfonylaminophenoxymethyl)pyridin-5-yl]piperidine-1-carboxylate]"
3,149 to 150,"CC(C)(C)OC(=O)N1CCC(c2ccc(COc3ccc([N+](=O)[O-])cc3)nc2)CC1 [Example 33, tert-Butyl 4-[2-(4-nitrophenoxymethyl)pyridin-5-yl]-piperidine-1-carboxylate]"
